Measurements reported in patent US20250312320A1, “METHOD AND TREATMENT FOR OSTEOARTHRITIS AND DISEASES OF CHONDROCYTE HYPERTROPHY” (The Royal Veterinary College, priority 2022, published 2025).

System: ATDC5 micromass
Experiment: Dose response of CDK8 inhibitors on ATDC5 micromass (alizarin red / alcian blue)
Format: cell-based, mouse
Conditions: day 14
Description: (§1) In brief, 2 μl micromasses were seeded in a 96-well plate and cultured as previous in the presence of BI1347 and additional CDK8i compounds namely BRD6989, AS2863619, SEL120-34A, MSC2530818 and CCT251545. Compound concentrations were titrated 10-fold from 10 μM down to 0.1 nM. On day 14 micromasses were fixed, stained and subsequently leached to allow for dose response analysis to be conducted.
as §1, with “seeded on” for “seeded in”, “additional Mediator kinase inhibitor” for “additional CDK8i”

SMILES	alcian blue staining (GAG deposition) (highest concentration of 10 μM)	alcian blue staining (GAG deposition) (all concentrations (10 μM down to 0.1 nM))
Cc1c(Br)c(Br)c2c3c1nc(N1CCNCC1)n3CCC2.Cl [SEL120-34A]	modestly reduced	
CC1CCc2nc(N)c(C#N)c(-c3cccnc3)c2C1 (stereo not shown) [BRD6989]		maintained
Cc1nc2ccc(-n3c(-c4nonc4N)nc4cnccc43)cc2[nH]1.Cl.Cl [AS2863619]	modestly reduced	
Cn1cc(-c2ccc(-c3cncc(Cl)c3N3CCC4(CCNC4=O)CC3)cc2)cn1 [CCT251545]	modestly reduced	
